The values below come from patent US7645745B2, “Antiviral nucleosides” (priority 2006, dated 2010).

Each structure is given as a SMILES string. Read-outs that look alike come from different tables or passages of the source.

Series [1] in a line: Caco2 protocol: transport through Caco-2 cell monolayers (Papp). Type of series: in vitro ADME. Particulars: human. How it is done: (§1) To further evaluate potential behavior in human subjects, the transport through Caco-2 cells was evaluated for the putative prodrugs.
(§2) Powders of Krebs-Henseleit buffer, calcium chloride dihydrate, and sodium bicarbonate were purchased from Sigma (St. Louis, Mo.). Caco-2 cells (Passage˜100) were obtained from Roche Basel. Dulbecco's Modified Eagle's Medium (DMEM)/high medium, 4-(2-hydroxyethyl)-1-piperazineethane-sulfonic acid (HEPES), and bovine serum were obtained from JRH Bioscience (Lenexa, Kans.). MEM nonessential amino acids, L-glutamine, penicillin, and streptomycin were obtained from GIBCO Labs, Life Tech. LLC (Grand Island, N.Y.). Snapwell cell culture inserts (6.5 mm diameter, 1.12 cm^2, 0.4 μm pore size) were obtained from Costar (Cambridge, Mass.).
(§3) Culture media consisted of DMEM/high medium supplemented with 5% bovine serum, 25 mM HEPES, 1% MEM non-essential amino acids, 1% L-glutamine, 100 U/mL penicillin, and 100 μg/mL streptomycin. Cultures were passaged every week at a split ratio of 1-3. For the permeability studies, Caco-2 cells at passage number 110-120 were plated at a density of 400,000 cells/cm^2 on Transwell polycarbonate filters in Snapwell inserts and allowed to culture for 7 days prior to use.
(§4) Krebs-Henseleit bicarbonate buffer containing 10 mM glucose and 2.5 mM CaCl2 adjusted to pH 6.5 and 7.4 were prepared per packet instructions. Powder salts were quantitatively dissolved in about 90% of required volume with Millipore water. Calcium chloride dihydrate and sodium bicarbonate were added before pH adjustment with 1N HCl or 1N NaOH. Additional Millipore water was added to bring the solution to final volume. The solution was sterilized by filtration using membrane with a porosity of 0.22 microns and stored in the refrigerator ([…]) until use.
(§5) Snapwells inserts, containing caco-2 monolayers were rinsed in 37° C. equilibrated Krebs-Henseleit pH 7.4 buffer.
(§6) The cell insert was utilized as the diffusion chamber. The pH of the Krebs-Henseleit buffer in the apical and basolateral chambers was 6.5 and 7.4, respectively, and the initial concentration of substrate in apical side was 100 μM. […] The experiments were initiated when the cell inserts with 100 μM compounds in pH 6.5 Krebs-Henseleit buffer were transferred into a new plate with pre-equilibrated buffer in basolateral chamber. Samples from donor side at 0 min, and both donor and receiver sides at 30 min were collected for analysis.
(§7) Lucifer Yellow was used to assess the performance of the diffusion system. […] After 60 min of incubation, 250 μL was removed from the basal chamber and assayed.
(§8) The Papp was calculated using the following formula:
(§9) [formula] Where V is the volume (cm^3) of the receiver solution, A is the surface area (cm^2) of the Snapwell insert, Co is the initial concentration (nM), and dC/dt is the change in concentration in the receiver chamber over time, i.e., the slope (nM/min) of the concentration in the receiver chamber vs. time. Concentrations at each sampling time point were corrected to account for the aliquots removed or transferring of donor inserts to new plates depending on the experiment.
(Caco-2 monolayers are a common model of the intestinal barrier.)

Another series relates to Caco-2 cells. The description is as above. The format is in vitro ADME. The settings on record: Caco-2 cultured 7 days; apical pH 6.5, basolateral pH 7.4; 100 μM apical; 30 min. How it is done: as §1, §2, §3, §4, §5, §6, §7, §8, §9
The nature of series [2]: Determination of pharmacokinetic parameters in rats (oral gavage, plasma LC/MS/MS). The settings on record: AUC(cyt) of parent cytidine nucleoside in plasma, dose equivalent to 10 mg/kg, male Hanover-Wistar rats. Type of series: in vivo, rat. The protocol: Determination of Pharmacokinetic Parameters in Rats Intact male IGS Wistar Han Rats Crl:WI(GLx/BRL/Han)IGS BR (Hanover-Wistar) rats weighing 200-250 g were used. Groups of three rats were used for each dose level of an experimental compound. Animals were allowed normal access to chow and water throughout the experiment. The test substance was formulated as an aqueous suspension containing Captex 355EP, Capmul MCM, EtOH, and propylene glycol (30:20:20:30) at a dose equivalent to 10 mg/kg of the I-5 and was administered orally by gavage. A blood sample (0.3 mL) was collected from the treated rats at, 0.25, 0.5, 1, 3, 5, and 8 h from a jugular cannula and at 24 h by cardiac puncture. Potassium oxalate/NaF were added to the samples which were stored on ice during sampling procedure. The samples were spun in a refrigerated centrifuge at […] as soon as possible and the plasma samples were stored in a −80° C. freezer until analysis. Aliquots of plasma (0.05 mL) were mixed with 0.1 mL of acetonitrile. Internal standard (0.05 mL in water) and 0.02 mL blank solvent were added. […] Sample Analysis—Prodrugs were analyzed using high-performance liquid chromatography with tandem mass-spectrometry (HPLC/MS/MS). […]

The subject of the next series is HCV. The settings on record: monotherapy; cited from earlier work.

Regarding `C[C@@]1(O)[C@H](O)[C@@H](CO)O[C@H]1n1ccc(N)nc1=O` [I-4, 4-amino-1-((2R,3R,4R,5R)-3,4-dihydroxy-5-hydroxymethyl-3-methyl-tetrahydro-furan-2-yl)-1H-pyrimidin-2-one, reference compound], in series [1] (Caco-2), the Papp A→B at 30 min, 100 μM was 0.76 ×10⁻⁶ cm/s.

`CC(C)C(=O)OC[C@H]1O[C@@H](n2ccc(N)nc2=O)[C@](C)(O)[C@@H]1OC(=O)C(C)C.Cl` [I-2, Iso-butyric Acid (2R,3R,4R,5R)-5-(4-amino-2-oxo-2H-pyrimidin-1-yl)-4-hydroxy-3-isobutyryloxy-4-methyl-tetrahydro-furan-2-ylmethyl ester; Hydrochloride Salt]: the “Caco2 (7 day)” value with Caco-2 cells is 1.06 cm/sec × 10^−6. Further, the “Rat AUC” value in series [2] is 5600 ± 300 ng·h/mL. Compound `CCC(=O)OC[C@H]1O[C@@H](n2ccc(N)nc2=O)[C@](C)(O)[C@@H]1OC(=O)CC.Cl` [I-1, Propionic Acid (2R,3R,4R,5R)-5-(4-amino-2-oxo-2H-pyrimidin-1-yl)-4-hydroxy-4-methyl-3-propionyloxy-tetrahydro-furan-2-ylmethyl ester; Hydrochloride Salt] came in with a melting point of 164.5 to 167 °C. Further, the Papp A→B at 30 min, 100 μM in series [1] (Caco-2) is 0.11 ×10⁻⁶ cm/s.

As for `CC(C)C(N)C(=O)O[C@@H]1[C@@H](CO)O[C@@H](n2ccc(N)nc2=O)[C@]1(C)O` (stereo partly drawn) [I-5, reference compound], in series [1] (Caco-2 cultured 7 days, apical pH 6.5, basolateral pH 7.4, 100 μM apical, 30 min, read-out: Caco2 (7 day)), the Papp A→B at 30 min, 100 μM is 0.12 ×10⁻⁶ cm/s. `CCCCC(=O)OC[C@H]1O[C@@H](n2ccc(N)nc2=O)[C@](C)(O)[C@@H]1OC(=O)CCCC.Cl` [I-3, Pentanoic Acid (2R,3R,4R,5R)-5-(4-amino-2-oxo-2H-pyrimidin-1-yl)-4-hydroxy-4-methyl-3-pentanoyloxy-tetrahydro-furan-2-ylmethyl ester; Hydrochloride Salt] gave a melting point of 158.2 to 159.2 °C. The compound further yielded a Papp A→B at 30 min, 100 μM in series [1] (Caco-2) of 4.21 ×10⁻⁶ cm/s. Consider `NC(=O)c1ncn([C@@H]2O[C@H](CO)[C@@H](O)[C@H]2O)n1` [ribavirin, 1-((2R,3R,4S,5R)-3,4-Dihydroxy-5-hydroxymethyl-tetrahydro-furan-2-yl)-1H-[1,2,4]triazole-3-carboxylic acid amide], for which the “patients with serum amino transferase levels reduced to normal” value with HCV is 40%.

The melting point is the temperature of the solid-liquid transition.
